Test results: patent US10344025B2, “GLS1 inhibitors for treating disease” (Board of Regents, The University of Texas System, priority 2014, dated 2019)

Columns and labels:
[1] = target: purified recombinant human GAC (GLS1) (Homo sapiens (Human), UniProt O94925); test: GLS1 Enzymatic Activity Assay (dual-coupled enzymatic assay, resorufin/Amplex UltraRed readout); assay type: biochemical;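 note: glutamate from GAC coupled via glutamate oxidase and peroxidase to resorufin, read as fluorescence (ex 530, em 590 nm) kinetically or at 20 min, four-parameter logistic IC50 fit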
Sequence of purified recombinant human GAC (GLS1) (O94925 other isoform, or with tags, fused parts or gaps): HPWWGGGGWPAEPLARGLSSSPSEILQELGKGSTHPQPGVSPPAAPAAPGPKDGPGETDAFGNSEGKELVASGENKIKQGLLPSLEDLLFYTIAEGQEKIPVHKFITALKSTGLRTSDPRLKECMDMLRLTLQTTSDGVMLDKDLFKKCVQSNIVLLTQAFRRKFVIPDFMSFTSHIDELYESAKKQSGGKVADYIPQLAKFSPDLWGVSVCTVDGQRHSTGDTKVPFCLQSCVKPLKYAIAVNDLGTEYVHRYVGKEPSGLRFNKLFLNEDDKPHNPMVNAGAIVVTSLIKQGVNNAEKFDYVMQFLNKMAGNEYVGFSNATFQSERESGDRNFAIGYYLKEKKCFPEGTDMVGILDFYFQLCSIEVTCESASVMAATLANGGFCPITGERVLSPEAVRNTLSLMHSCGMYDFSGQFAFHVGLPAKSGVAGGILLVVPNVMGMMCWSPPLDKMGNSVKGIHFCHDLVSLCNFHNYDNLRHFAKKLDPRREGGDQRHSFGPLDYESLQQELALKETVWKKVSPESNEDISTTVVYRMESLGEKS

A549 cells = test: Proliferation Assay (A549 viability, Cell Titer Fluor, 72 hours); assay type: cell-based; details: Homo sapiens
Summary of the method: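 Cell Titer Fluor fluorescence after 72 h compound treatment (0.5% DMSO, 37 °C, 5% CO2) of A549 cells plated 24 h earlier at 1000/well. Four-parameter logistic fitting gave IC50.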

| SMILES | IC50 [1] | EC50 (A549 cells; A549, 72 h) | EC50 (A549 cells) |
| --- | --- | --- | --- |
| O=C(CN1CCC(F)(F)C1)Nc1cn(CCCCn2cc(C(=O)NCc3cc(OC(F)(F)F)ccc3F)nn2)nn1 [Example 356, 1-(4-{4-[2-(3,3-difluoropyrrolidin-1-yl)acetamido]-1H-1,2,3-triazol-1-yl}butyl)-N-{[2-fluoro-5-(trifluoromethoxy)phenyl]methyl}-1H-1,2,3-triazole-4-carboxamide] | < 100 nM | < 100 nM |  |
| O=C(NCc1cc(C(F)(F)F)ccn1)c1cn(CCCCc2ccc(NC(=O)C3CC3)nn2)nn1 [Example 177, 1-[4-(6-cyclopropaneamidopyridazin-3-yl)butyl]-N-{[4-(trifluoromethyl)pyridin-2-yl]methyl}-1H-1,2,3-triazole-4-carboxamide] | < 100 nM | 100 to 500 nM |  |
| O=C(NCc1cccc(OC(F)(F)F)c1)c1cn(CCCCc2nnc(C(=O)NCc3cncc(C(F)(F)F)c3)s2)nn1 [Example 76, 5-{4-[4-({[3-(trifluoromethoxy)phenyl]methyl}carbamoyl)-1H-1,2,3-triazol-1-yl]butyl}-N-{[5-(trifluoromethyl)pyridin-3-yl]methyl}-1,3,4-thiadiazole-2-carboxamide] | < 100 nM | < 100 nM |  |
| O=C(NCc1cc(OC(F)(F)F)ccc1F)c1cn(CCC(F)Cn2cc(C(=O)NCc3ccc(C(F)(F)F)cn3)nn2)nn1 (stereo not shown) [Example 423, 1-{2-fluoro-4-[4-({[2-fluoro-5-(trifluoromethoxy)phenyl]methyl}carbamoyl)-1H-1,2,3-triazol-1-yl]butyl}-N-{[5-(trifluoromethyl)pyridin-2-yl]methyl}-1H-1,2,3-triazole-4-carboxamide] | < 100 nM | < 100 nM |  |
| CNC(=O)c1cn(CCCCn2cc(C(=O)NCc3cccc(OC(F)(F)F)c3)nn2)nn1 [Example 95, N-methyl-1-{4-[4-({[3-(trifluoromethoxy)phenyl]methyl}carbamoyl)-1H-1,2,3-triazol-1-yl]butyl}-1H-1,2,3-triazole-4-carboxamide] | 100 to 500 nM | 100 to 500 nM |  |
| O=C(Cc1ccccn1)Nc1nnc(CC[C@@H](F)Cn2cc(C(=O)NCc3cc(C(F)(F)F)ccn3)nn2)s1 [Example 250, (R)-1-(2-fluoro-4-(5-(2-(pyridin-2-yl)acetamido)-1,3,4-thiadiazol-2-yl)butyl)-N-((4-(trifluoromethyl)pyridin-2-yl)methyl)-1H-1,2,3-triazole-4-carboxamide] | < 100 nM |  | < 100 nM |
| O=C(NCc1cc(C(F)(F)F)ccn1)c1cn(CCCCn2cc(C(=O)NC3CCCC3)nn2)nn1 [Example 104, 1-{4-[4-(cyclopentylcarbamoyl)-1H-1,2,3-triazol-1-yl]butyl}-N-{[4-(trifluoromethyl)pyridin-2-yl]methyl}-1H-1,2,3-triazole-4-carboxamide] | 500 to 5000 nM | 500 to 5000 nM |  |
| CNC(=O)c1cn(CCCCc2ccc(NC(=O)Cc3cccc(OCCOC)c3)nn2)nn1 [Example 173, 1-[4-(6-{2-[3-(2-methoxyethoxy)phenyl]acetamido}pyridazin-3-yl)butyl]-N-methyl-1H-1,2,3-triazole-4-carboxamide] | 100 to 500 nM | 100 to 500 nM |  |
| Cc1ccc(CC(=O)Nc2cn(CCC(F)Cn3cc(C(=O)NCc4cc(OC(F)(F)F)ccc4F)nn3)nn2)cn1 (stereo not shown) [Example 405, 1-(2-fluoro-4-{4-[2-(6-methylpyridin-3-yl)acetamido]-1H-1,2,3-triazol-1-yl}butyl)-N-{[2-fluoro-5-(trifluoromethoxy)phenyl]methyl}-1H-1,2,3-triazole-4-carboxamide] | < 100 nM | < 100 nM |  |
| O=C(NCc1cccc(C(F)(F)F)c1)c1cn(CCCCn2cc(C(=O)NCC3CCCCO3)nn2)nn1 (stereo not shown) [Example 121, N-(oxan-2-ylmethyl)-1-{4-[4-({[3-(trifluoromethyl)phenyl]methyl}carbamoyl)-1H-1,2,3-triazol-1-yl]butyl}-1H-1,2,3-triazole-4-carboxamide] | 100 to 500 nM | 100 to 500 nM |  |
| Cc1ccc(CNC(=O)c2cn(CCC(F)Cn3cc(NC(=O)Cc4cccc(OC(F)(F)F)c4)nn3)nn2)cn1 (stereo not shown) [Example 328, 1-[3-fluoro-4-(4-{2-[3-(trifluoromethoxy)phenyl]acetamido}-1H-1,2,3-triazol-1-yl)butyl]-N-[(6-methylpyridin-3-yl)methyl]-1H-1,2,3-triazole-4-carboxamide] | < 100 nM | < 100 nM |  |
| O=C(CN1CC(F)(F)C1)Nc1cn(CC(F)CCn2cc(C(=O)NCc3cc(C(F)(F)F)ccn3)nn2)nn1 (stereo not shown) [Example 402, 1-(4-{4-[2-(3,3-difluoroazetidin-1-yl)acetamido]-1H-1,2,3-triazol-1-yl}-3-fluorobutyl)-N-{[4-(trifluoromethyl)pyridin-2-yl]methyl}-1H-1,2,3-triazole-4-carboxamide] | 100 to 500 nM | 500 to 5000 nM |  |
| O=C(NCc1cncc(C(F)(F)F)c1)c1cn(CCCCn2cc(C(=O)NCC3CCC3)nn2)nn1 [Example 93, N-(cyclobutylmethyl)-1-{4-[4-({[5-(trifluoromethyl)pyridin-3-yl]methyl}carbamoyl)-1H-1,2,3-triazol-1-yl]butyl}-1H-1,2,3-triazole-4-carboxamide] | 100 to 500 nM | 500 to 5000 nM |  |
| CNC(=O)c1cn(CC(F)CCc2ccc(NC(=O)Cc3cc(OCC(F)(F)F)ccn3)nn2)nn1 (stereo not shown) [Example 262, 1-(2-Fluoro-4-(6-(2-(4-(2,2,2-trifluoroethoxy)pyridin-2-yl)acetamido)pyridazin-3-yl)butyl)-N-methyl-1H-1,2,3-triazole-4-carboxamide] | < 100 nM |  | < 100 nM |
| O=C(NCc1cccc(OC(F)(F)F)c1)c1cn(CCC(F)Cn2cc(C(=O)NCc3cc(C4CC4)ccn3)nn2)nn1 (stereo not shown) [Example 147] | < 100 nM | < 100 nM |  |
| O=C(Cc1cc(OC(F)(F)F)ccc1F)Nc1cn(CCCCn2cc(C(=O)NCc3cc(C(F)(F)F)ccn3)nn2)nn1 [Example 413, 1-[4-(4-{2-[2-fluoro-5-(trifluoromethoxy)phenyl]acetamido}-1H-1,2,3-triazol-1-yl)butyl]-N-{[4-(trifluoromethyl)pyridin-2-yl]methyl}-1H-1,2,3-triazole-4-carboxamide] | < 100 nM | < 100 nM |  |
| O=C(Cc1cc(OC(F)(F)F)ccc1F)Nc1cn(CC(F)CCn2cc(C(=O)NCc3ncccc3F)nn2)nn1 (stereo not shown) [Example 378, 1-[3-fluoro-4-(4-{2-[2-fluoro-5-(trifluoromethoxy)phenyl]acetamido}-1H-1,2,3-triazol-1-yl)butyl]-N-[(3-fluoropyridin-2-yl)methyl]-1H-1,2,3-triazole-4-carboxamide] | < 100 nM | < 100 nM |  |

Second part, led by results:

| IC50 [1] | EC50 (A549 cells; A549, 72 h) | SMILES | EC50 (A549 cells) |
| --- | --- | --- | --- |
| < 100 nM | < 100 nM | O=C(NCc1cccc(OC(F)(F)F)c1)c1cn(CC(F)CCc2nnc(C(=O)NCc3ccc(C(F)(F)F)cn3)s2)nn1 (stereo not shown) [Example 464, 5-{3-fluoro-4-[4-({[3-(trifluoromethoxy)phenyl]methyl}carbamoyl)-1H-1,2,3-triazol-1-yl]butyl}-N-{[5-(trifluoromethyl)pyridin-2-yl]methyl}-1,3,4-thiadiazole-2-carboxamide] |  |
| < 100 nM | 500 to 5000 nM | O=C(Cc1cccc(OC(F)(F)F)c1)Nc1nnc(CCC(F)Cn2cc(C(=O)NCC3COC3)nn2)s1 (stereo not shown) [Example 558, 1-[2-fluoro-4-(5-{2-[3-(trifluoromethoxy)phenyl]acetamido}-1,3,4-thiadiazol-2-yl)butyl]-N-(oxetan-3-ylmethyl)-1H-1,2,3-triazole-4-carboxamide] |  |
| < 100 nM | < 100 nM | O=C(NCc1cccc(C(F)(F)F)c1)c1cn(CCC(F)Cn2cc(C(=O)NCc3cc(C(F)(F)F)ccn3)nn2)nn1 (stereo not shown) [Example 455, 1-{2-fluoro-4-[4-({[3-(trifluoromethyl)phenyl]methyl}carbamoyl)-1H-1,2,3-triazol-1-yl]butyl}-N-{[4-(trifluoromethyl)pyridin-2-yl]methyl}-1H-1,2,3-triazole-4-carboxamide] |  |
| < 100 nM | 100 to 500 nM | CNC(=O)c1cn(CC(F)CCc2nnc(NC(=O)Cc3cccc(OC(F)(F)F)c3)s2)nn1 (stereo not shown) [Example 497, 1-(2-fluoro-4-(5-(2-(3-(trifluoromethoxy)phenyl)acetamido)-1,3,4-thiadiazol-2-yl)butyl)-N-methyl-1H-1,2,3-triazole-4-carboxamide] |  |
| < 100 nM | < 100 nM | O=C(NCc1cccc(OC(F)(F)F)c1)c1cn(CCC(F)Cn2cc(C(=O)NCc3ccc(C(F)(F)F)cn3)nn2)nn1 (stereo not shown) [Example 431, 1-{2-fluoro-4-[4-({[3-(trifluoromethoxy)phenyl]methyl}carbamoyl)-1H-1,2,3-triazol-1-yl]butyl}-N-{[5-(trifluoromethyl)pyridin-2-yl]methyl}-1H-1,2,3-triazole-4-carboxamide] |  |
| 100 to 500 nM | 500 to 5000 nM | CNC(=O)c1cn(CC(F)CCc2nnc(C(=O)NCc3ccccn3)s2)nn1 (stereo not shown) [Example 570, 5-(3-fluoro-4-(4-(methylcarbamoyl)-1H-1,2,3-triazol-1-yl)butyl)-N-(pyridin-2-ylmethyl)-1,3,4-thiadiazole-2-carboxamide] |  |
| < 100 nM | < 100 nM | O=C(Cc1cccc(OC(F)(F)F)c1)Nc1nnc(CCC(F)Cn2cc(C(=O)NCc3ccc(C(F)(F)F)nc3)nn2)s1 (stereo not shown) [Example 498, 1-[2-fluoro-4-(5-{2-[3-(trifluoromethoxy)phenyl]acetamido}-1,3,4-thiadiazol-2-yl)butyl]-N-{[6-(trifluoromethyl)pyridin-3-yl]methyl}-1H-1,2,3-triazole-4-carboxamide] |  |
| < 100 nM | 100 to 500 nM | CNC(=O)c1cn(CCC(F)Cn2cc(NC(=O)Cc3cc(OC(F)(F)F)ccc3F)nn2)nn1 (stereo not shown) [Example 525, 1-[3-fluoro-4-(4-{2-[2-fluoro-5-(trifluoromethoxy)phenyl]acetamido}-1H-1,2,3-triazol-1-yl)butyl]-N-methyl-1H-1,2,3-triazole-4-carboxamide] |  |
| < 100 nM | 100 to 500 nM | CCNC(=O)c1nnc(CCC(F)Cn2cc(C(=O)NCc3cccc(OC(F)(F)F)c3)nn2)s1 (stereo not shown) [Example 522, N-ethyl-5-{3-fluoro-4-[4-({[3-(trifluoromethoxy)phenyl]methyl}carbamoyl)-1H-1,2,3-triazol-1-yl]butyl}-1,3,4-thiadiazole-2-carboxamide] |  |
